Consider 24 compounds from patent US4757076A, “Method of inhibiting aromatase” (Eli Lilly and Company, priority 1984, dated 1988).

Structures can show the parent of a compound that is named as a salt. A value given as a limit tells only on which side of the number the result lay.

For experiment [1], the target named is T1, aromatase (Rattus norvegicus, UniProt P22443).
T1 construct: ovarian microsomes are obtained from rats treated with pregnant mares serum gonadotropin; from tissue; host or cells: ovarian microsomes of rats treated with pregnant mares serum gonadotropin
T1 sequence (P22443 1-508): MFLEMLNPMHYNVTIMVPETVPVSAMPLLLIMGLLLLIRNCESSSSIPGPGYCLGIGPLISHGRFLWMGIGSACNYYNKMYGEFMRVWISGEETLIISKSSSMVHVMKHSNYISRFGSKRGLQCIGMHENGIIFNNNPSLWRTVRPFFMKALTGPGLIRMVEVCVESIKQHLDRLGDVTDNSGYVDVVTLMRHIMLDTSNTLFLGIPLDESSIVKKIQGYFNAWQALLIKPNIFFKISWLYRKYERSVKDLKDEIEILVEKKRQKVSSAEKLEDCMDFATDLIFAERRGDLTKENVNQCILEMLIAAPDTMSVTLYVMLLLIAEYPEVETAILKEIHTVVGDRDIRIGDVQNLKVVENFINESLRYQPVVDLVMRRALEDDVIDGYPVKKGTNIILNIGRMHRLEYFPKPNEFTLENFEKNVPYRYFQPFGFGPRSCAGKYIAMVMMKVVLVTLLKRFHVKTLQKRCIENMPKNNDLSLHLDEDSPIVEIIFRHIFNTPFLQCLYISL
Nature of the experiment: Aromatase inhibition in the rat ovarian microsome assay (modified isolated rat ovarian microsome method of Brodie et al.). Type of experiment: biochemical. Particulars: rat ovarian microsomes; substrate (androstenedione) concentration 0.1 μM.
Method: In this test system, ovarian microsomes are obtained from rats treated with pregnant mares serum gonadotropin. Test compounds are added to reaction vials containing 0.1 μM 4-androstene-3,17-dione, 100,000 dpm 1,2[^3 H]-androstenedione, the microsomes and a NADPH generating system. The concentrations of the inhibitors tested ranged between 0.005 and 10 μM.

Experiment [2] concerns estrogen synthesis (aromatization). Nature of the experiment: Estrogen Synthesis Inhibition in Rats (uterine weight and ovarian steroid concentration). Particulars: 7 days; for Mean Uterine Weight: testosterone propionate-treated, significantly different from testosterone-treated control (163.88); for Mean Steroid Concentration, estriol / Mean Steroid Concentration, estradiol: ovary; for Mean Steroid Concentration, estriol: testosterone-treated control 0.68; for Mean Steroid Concentration, estradiol: testosterone-treated control 1.29. Type of experiment: in vivo, immature female Wistar rats.
Method: Test compounds were administered for seven days as a component of the diet. Control animals received diet without the test compound. Beginning on the fourth day of the test, all animals treated with the test compound and one half of the control animals were given a subcutaneous injection of 1.0 mg of testosterone propionate in corn oil. The remaining control animals received only an equivalent volume of corn oil.
After two hours, the animals were killed by decapitation. Uteri were isolated, trimmed of extraneous connective tissue, and weighed.
The ovarian steroids were extracted with 1.5 ml of 9:1 (v/v) toluene/ethanol to which had been added 25 to 100 mcg. each of unlabelled estradiol, estriol, and estrone, and approximately 1000 dpm of [^14 C]-estradiol. The samples were vortexed, centrifuged at 500×g for 10 minutes, and the organic phase was transferred to a conical vial. Two additional extractions were performed on the residue in the same way. The pooled organic extracts were evaporated for subsequent thin-layer chromatography.
Ovarian proteins were precipitated by the addition of 5.0 ml of ethanol to the remaining aqueous phase. After an overnight incubation at 4° C., the samples were centrifuged at 1500×g for 10 minutes. The supernatant was discarded, and the pellet was dissolved in 0.3 N potassium hydroxide.
The organic residue from each above extraction was redissolved in 9:1 (v/v) dichloromethane/methanol. The solution of each sample was applied to separate silica gel thin layer chromatography plates which contained a fluorescent indicator. The plates were developed in the first dimension with 160:38:1.5:0.5 (v/v/v/v) dichloromethane/ethyl acetate/methanol/acetic acid to within 3 cm of the top of the plate. After air-drying, the plate was developed in the second dimension with 180:19:1 (v/v/v) dichloromethane/methanol/ammonium hydroxide. The plate was air-dried and viewed under 254 nm UV light.
The visible spots were marked, and the plates were sprayed with primulin (0.001% in 4:1 v/v acetone/water) according to the method of Wright, J. Chromatography, 59, 220 (1971) which allowed for the identification of additional steroids under 365 nm UV light. The spots were scraped from the plate using a glass wool plugged Pasteur pipet attached to a vacuum line. The steroids were eluted directly into scintillation vials by the addition of 0.2 ml of dichloromethane followed by two washes each of 2.0 ml of methanol. The organic solvent was evaporated and 10.0 ml of scintillation fluid (Beckman Ready Solv-NA) was added to the vials. Samples were analyzed by liquid scintillation spectrometry. Corrections were made based on the recoveries of the [^14 C]-steroid. Steroid concentrations are expressed as femtomoles per milligram protein.

Experiment [3] concerns DMBA-induced mammary tumors. Nature of the experiment: DMBA-Induced Mammary Tumor Inhibition. The note with it: 300 ppm in diet (approx. 30 mg/kg/day). Type of experiment: in vivo, female Sprague-Dawley rats. On the procedure:
Mammary tumors were produced in female Sprague-Dawley rats which were 50-60 days old by the gavage administration of 20 mg of 7,12-dimethylbenz[a]anthracene (DMBA). About six weeks after DMBA administration, the mammary glands were palpated at weekly intervals for the appearance of tumors. Whenever one or more tumors appeared and were measurable in an animal, that animal was selected for experimentation. […] Each control and test group contained 8 animals. The test compound was administered mixed into the food at a concentration of 300 ppm (corresponding to an appropriate daily dose of 30 mg/kg). The experiment included a group of control rats having tumors and were given food without the compound admixed. […] The area of each tumor was calculated by multiplying the shortest and longest diameters of the tumor. The treatment and measurement of animals continued for 5 weeks at which time the final areas of the tumors were determined.

Setting [4] is: 30 ppm in feed (approx. 3 mg/kg/day).

A word on the EC50: it is the midpoint of the concentration-response curve. With `OC(c1ccc(Cl)cc1)(c1cccnc1)c1ccc2c(c1)OCO2` (stereo not drawn) [α-(4-chlorophenyl)-α-(3,4-methylenedioxyphenyl)-3-pyridinemethanol], the midpoint of the response in experiment [1], the EC50, lay at 500 nM. That is a sub-micromolar value. In turn, `OC(Cc1ccc(Cl)cc1)(Cc1ccc(Cl)cc1)c1cccnc1` [α,α-bis(4-chlorobenzyl)-3-pyridinemethanol] returned an EC50 in experiment [1] above 5000 nM. The same measure, in the same setting: to `CN(C)c1ccc(C(O)(c2ccncc2)c2ccc(N(C)C)cc2)cc1` [α,α-bis[4-(dimethylamino)phenyl]-4-pyridinemethanol] belongs 3400 nM; to `O=[N+]([O-])c1ccc(Cc2ccncc2)cc1` [4-(4-nitrobenzyl)pyridine], 980 nM; to `OC(c1cccnc1)(c1ccc(Cl)cc1Cl)c1ccc(Cl)cc1Cl` [α,α-bis(2,4-dichlorophenyl)-3-pyridinemethanol hydrochloride], 4000 nM. On the same count and under the same terms, the value for `Cc1cncc(C(O)(c2ccccc2)c2ccc(Cl)cc2)c1` (stereo not drawn) [α-(4-chlorophenyl)-5-methyl-α-phenyl-3-pyridinemethanol] was 4100 nM; that for `OC(Cc1ccccc1)(Cc1ccccc1)c1cccnc1` [α,α-dibenzyl-3-pyridinemethanol] was 2850 nM.

For the compound `OC(Cc1ccc(Cl)c(Cl)c1)(c1ccc(Cl)cc1)c1cccnc1` (stereo not drawn) [α-(3,4-dichlorobenzyl)-α-(4-chlorophenyl)-3-pyridinemethanol], in experiment [1], the EC50 is 3150 nM. The compound `OC(Cc1ccc(Cl)cc1)(c1cccnc1)c1cccc(Cl)c1` (stereo not drawn) [α-(4-chlorobenzyl)-α-(3-chlorophenyl)-3-pyridinemethanol] yielded an EC50 in experiment [1] of 3200 nM. On to `Cc1ccc(C(O)(c2ccccc2)c2cccnc2)cc1` (stereo not drawn) [α-(4-methylphenyl)-α-phenyl-3-pyridinemethanol], for which the half-maximal effective concentration (EC50) in experiment [1] came out at 2400 nM. Take `OC(Cc1ccc(Cl)cc1Cl)(c1ccc(Cl)cc1)c1cccnc1` (stereo not drawn) [α-(2,4-dichlorobenzyl)-α-(4-chlorophenyl)-3-pyridinemethanol hydrochloride]: in experiment [1], the 50% effective concentration (EC50) was above 5000 nM. On the same count and under the same terms, to `OC(Cc1ccc(Cl)cc1)(c1ccc(Cl)cc1)c1cccnc1` (stereo not drawn) [α-(4-chlorobenzyl)-α-(4-chlorophenyl)-3-pyridinemethanol] belongs 2900 nM.

In experiment [1], `Clc1ccccc1C(c1ccncc1)c1ccccc1Cl` [4-bis(2-chlorophenyl)methylpyridine] yielded a 50% effective concentration (EC50) of 490 nM. For the compound `OC(Cc1ccc(Cl)cc1Cl)(c1ccc(Cl)cc1)c1cccnc1` (stereo not drawn) [α-(2,4-dichlorobenzyl)-α-(4-chlorophenyl)-3-pyridinemethanol], the concentration giving a half-maximal response (EC50) in experiment [1] was 3200 nM. Against the preceding compound, the EC50 is about 6.5-fold higher.

In experiment [1], `OC(Cc1ccc(Cl)cc1)(c1ccncc1)c1ccc(Cl)cc1` (stereo not shown) [1,2-bis(4-chlorophenyl)-1-(4-pyridyl)ethanol] returned an EC50 of 185 nM. Take `OC(c1ccccc1)(c1cccnc1)c1ccc(F)cc1F` (stereo not drawn) [α-(2,4-difluorophenyl)-α-phenyl-3-pyridinemethanol]: a half-maximal effect in experiment [1] (EC50) was put at 2050 nM. The same measure, in the same setting: the value for `CCCN(CCC)C(c1ccc(Cl)cc1)c1cccnc1` (stereo not drawn) [α-(4-chlorophenyl)-N,N--di(n-propyl)-3-pyridylmethylamine] was 150 nM; that for `OC(Cc1ccc(Cl)cc1Cl)(Cc1ccc(Cl)cc1Cl)c1cccnc1` [α,α-bis(2,4-dichlorobenzyl)-3-pyridinemethanol hydrochloride] was 1850 nM; that for `OC(Cc1ccc(Cl)cc1)(Cc1ccc(Cl)cc1Cl)c1cccnc1` (stereo not drawn) [α-(4-chlorobenzyl)-α-(2,4-dichlorobenzyl)-3-pyridinemethanol] was 2400 nM. On to `OC(c1ccc(Cl)cc1)(c1ccc(Cl)cc1)c1cccnc1` [α,α-bis(4-chlorophenyl)-3-pyridinemethanol], for which the “Mean Uterine Weight” value is 127.25 mg in experiment [2] (30 ppm in feed (approx. 3 mg/kg/day), 4 animals, p < 0.05) and 87.80 mg in experiment [2] (300 ppm in feed (approx. 30 mg/kg/day), 5 animals, p < 0.05). For the same compound, the “Mean Steroid Concentration, estriol” value in experiment [2] (setting [4]) is given as 0.70 femtomoles per milligram of protein; in experiment [2] (300 ppm in feed (approx. 30 mg/kg/day)) it was 0.39 femtomoles per milligram of protein. Moreover, the “Mean Steroid Concentration, estradiol” value in experiment [2] (setting [4]) is given as 1.04 femtomoles per milligram of protein; in experiment [2] (300 ppm in feed (approx. 30 mg/kg/day), p < 0.05) it was 0.36 femtomoles per milligram of protein. For the same compound, the “Mean Tumor Area, Finish” value in experiment [3] (after 5 weeks, control 1140) amounted to 433 mm^2. Besides, in experiment [3] (start of 5-week test, control 73.9), the “Mean Tumor Area, Start” value is on record as 108.8 mm^2. On to `OC(c1ccc(Cl)cc1)c1cccnc1` (stereo not drawn) [α-(3-pyridyl)-4-chlorobenzyl alcohol], for which it took 2400 nM to reach a half-maximal effect in experiment [1] (EC50).

In experiment [1], `CCCSC(c1ccc(Cl)cc1)(c1ccc(Cl)cc1)c1cccnc1` [3-[α-(4-chlorophenyl)-α-(n-propylthio)-4-chlorobenzyl]pyridine] yielded an EC50 of 1750 nM.

For `Clc1ccc(Cc2ccncc2)cc1` [4-(4-chlorobenzyl)pyridine], in experiment [1], the EC50 was determined as 550 nM. Turning to `OC(c1cccnc1)(c1cccc(Br)c1)c1cccc(Br)c1` [α,α-bis(3-bromophenyl)-3-pyridinemethanol], it took 2200 nM to reach a half-maximal effect in experiment [1] (EC50). This EC50 lies about 4-fold higher than the previous one.
